In US20230203041A1, “ANTAGONISTS OF THE ADENOSINE A2A RECEPTOR” (AdoRx Therapeutics Limited, priority 2020, published 2023):
pIC50, pKi: −log10 of the molar value.

Assays:
[1] = target: T1, human Adenosine A3 receptor (Homo sapiens, UniProt P0DMS8); assay: Adenosine receptor TR-FRET binding assay (CA200645 displacement), A3
T1 sequence (P0DMS8 1-318): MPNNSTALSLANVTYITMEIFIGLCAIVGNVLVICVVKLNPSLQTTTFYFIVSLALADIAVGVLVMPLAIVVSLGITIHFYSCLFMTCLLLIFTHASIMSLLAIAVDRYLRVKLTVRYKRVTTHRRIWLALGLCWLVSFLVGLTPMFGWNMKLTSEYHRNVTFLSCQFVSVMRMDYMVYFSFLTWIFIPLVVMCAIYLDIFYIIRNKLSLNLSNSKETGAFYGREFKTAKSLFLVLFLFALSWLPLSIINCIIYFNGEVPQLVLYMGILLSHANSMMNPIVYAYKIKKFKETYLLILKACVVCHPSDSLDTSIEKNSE

human PBMCs = assay: CD3/CD28 stimulated IL-2 release NECA reversal assay in human PBMCs; format: cell-based; details: PBMC, CD3/CD28 antibody stimulated, 1 uM NECA, 24 hours, IL-2 in culture supernatant;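 note: dose-response as % inhibition where 100% equals no-NECA control wells with CD3/CD28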
Procedure: Blood is drawn from healthy volunteers using sodium citrate as the anticoagulant (0.3% final concentration). After centrifugation of the blood over Histopaque-1077, PBMCs are collected from the Histopaque/plasma interface and washed twice in PBS (300 g for 10 mins at room temp). Cells are plated at 50,000 cells/well in 150 μl RPMI/10% FCS in 96-well cell culture plates that have been precoated with 1 ug/ml CD3 antibody. 50 μl diluted compound mix is added to the cells, to obtain final concentrations of 1 ug/ml CD28 antibody, 1 uM NECA and 0.003-10 μM adenosine receptor antagonist. Assay plates are incubated for 24 hours at 37° C. in a humidified incubator. Culture supernatant is tested for IL-2 levels using the human IL-2 Tissue Culture Kit (Meso Scale Discovery).

[2] = target: T2, human Adenosine A2a receptor (Homo sapiens, UniProt P29274); assay: Adenosine receptor TR-FRET binding assay (CA200645 displacement), A2a; details: 100 nM CA200645, CHO cell membranes, 2 hours at room temperature
T2 construct: expressed in transfected cells; host or cells: CHO cell membranes

[3] = target: T3, human Adenosine A1 receptor (Homo sapiens, UniProt P30542); assay: Adenosine receptor TR-FRET binding assay (CA200645 displacement), A1
T3 sequence (P30542 1-326): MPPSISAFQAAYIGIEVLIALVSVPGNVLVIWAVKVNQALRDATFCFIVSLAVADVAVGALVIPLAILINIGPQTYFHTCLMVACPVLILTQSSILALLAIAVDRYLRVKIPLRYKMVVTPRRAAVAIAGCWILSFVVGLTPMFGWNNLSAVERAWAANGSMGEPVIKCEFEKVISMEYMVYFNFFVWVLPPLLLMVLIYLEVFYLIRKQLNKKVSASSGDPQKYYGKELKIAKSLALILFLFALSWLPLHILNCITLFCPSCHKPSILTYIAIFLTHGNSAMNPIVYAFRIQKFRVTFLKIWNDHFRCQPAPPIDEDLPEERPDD

[4] = target: T4, human Adenosine A2b receptor (Homo sapiens, UniProt P29275); assay: Adenosine receptor TR-FRET binding assay (CA200645 displacement), A2b; details: 30 nM CA200645, CHO cell membranes, 2 hours at room temperature
T4 construct: expressed in transfected cells; host or cells: CHO cell membranes
T4 sequence (P29275 1-332): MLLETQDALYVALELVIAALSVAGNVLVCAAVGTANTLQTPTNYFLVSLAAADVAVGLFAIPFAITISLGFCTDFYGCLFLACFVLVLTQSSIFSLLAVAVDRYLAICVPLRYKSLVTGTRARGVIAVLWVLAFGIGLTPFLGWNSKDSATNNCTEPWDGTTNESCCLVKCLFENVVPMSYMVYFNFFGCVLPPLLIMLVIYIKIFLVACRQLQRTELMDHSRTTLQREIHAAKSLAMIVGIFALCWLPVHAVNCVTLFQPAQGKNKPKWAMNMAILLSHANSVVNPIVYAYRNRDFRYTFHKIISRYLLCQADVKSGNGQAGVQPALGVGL

T2 sequence (P29274 whole entry): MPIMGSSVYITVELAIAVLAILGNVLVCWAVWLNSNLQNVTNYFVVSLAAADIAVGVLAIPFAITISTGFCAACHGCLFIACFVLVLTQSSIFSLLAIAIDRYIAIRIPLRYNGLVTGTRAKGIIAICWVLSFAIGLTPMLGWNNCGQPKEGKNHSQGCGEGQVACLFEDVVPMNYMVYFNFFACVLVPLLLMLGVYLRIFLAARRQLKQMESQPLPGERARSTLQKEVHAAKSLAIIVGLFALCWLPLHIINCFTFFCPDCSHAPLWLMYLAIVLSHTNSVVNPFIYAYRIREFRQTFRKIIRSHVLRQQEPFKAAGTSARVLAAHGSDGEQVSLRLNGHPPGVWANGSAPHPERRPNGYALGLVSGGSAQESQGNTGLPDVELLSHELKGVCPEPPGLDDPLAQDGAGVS

SMILES | pKi [1] | pIC50 (human PBMCs) | pKi [2] | pKi [3] | pKi [4]
Cc1cc(-c2c(-c3cccc(C#N)c3)nn3ccc(C(=O)NC4COC4)nc23)cc(Cl)n1 [Example 5.5] | < 6.00 | 7.68 | 8.77 | 6.70 | 7.26
N#Cc1c(-c2ccccc2F)nn2ccc(NCc3ccccc3)nc12 [Example 35, 5-(Benzylamino)-2-(2-fluorophenyl)pyrazolo[1,5-a]pyrimidine-3-carbonitrile] |  | 6.39 | 8.35 | 8.40 | 6.91
CC(C)(C)OC(=O)N1CCO[C@@H](CNc2ccn3nc(-c4ccco4)c(C#N)c3n2)C1 [Example 37.1] | 5.68 | 6.32 | 7.88 | 7.35 | 7.34
Brc1c(-c2ccco2)nn2ccc(NCc3ccccc3)nc12 [Example 44, N-Benzyl-3-bromo-2-(2-furyl)pyrazolo[1,5-a]pyrimidin-5-amine] | 7.60 | 6.30 | 8.47 | 6.85 | 5.55
N#Cc1c(-c2ccco2)nn2ccc(NCc3ccccc3)nc12 [Example 45, 5-(Benzylamino)-2-(2-furyl)pyrazolo[1,5-a]pyrimidine-3-carbonitrile] |  | 6.97 | 9.30 | 8.22 | 7.13
NC(=O)c1c(-c2ccco2)nn2ccc(NCc3ccccc3)nc12 [Example 46, 5-(Benzylamino)-2-(2-furyl)pyrazolo[1,5-a]pyrimidine-3-carboxamide] | 5.89 | 7.22 | 8.57 | 6.84 | 6.59
O=Cc1c(-c2ccco2)nn2ccc(NCc3ccccc3)nc12 [Example 47, 5-(Benzylamino)-2-(2-furyl)pyrazolo[1,5-a]pyrimidine-3-carbaldehyde] | 6.29 | 6.85 | 8.28 | 6.76 | 6.32
c1ccc(CNc2ccn3nc(-c4ccco4)cc3n2)cc1 [Example 48, N-Benzyl-2-(2-furyl)pyrazolo[1,5-a]pyrimidin-5-amine] | 7.39 | 5.72 | 7.78 | 6.86 | 5.93
Cc1cccnc1CN1CCN(c2ccn3nc(-c4ccco4)c(C#N)c3n2)CC1 [Example 51, 2-(2-Furyl)-5-[4-[(3-methyl-2-pyridyl)methyl]piperazin-1-yl]pyrazolo[1,5-a]pyrimidine-3-carbonitrile] | 5.67 | 7.14 | 7.62 | 6.90 | 5.59
N#Cc1c(-c2ccco2)nn2ccc(N3CCN(Cc4c(F)cc(F)cc4F)CC3)nc12 [Example 51.1, 2-(2-Furyl)-5-[4-[(2,4,6-trifluorophenyl)methyl]piperazin-1-yl]pyrazolo [1,5-a]pyrimidine-3-carbonitrile] | < 6.00 | 7.80 | 7.58 | 6.49 | 5.85
Cn1cc(-c2c(-c3ccco3)nn3ccc(NCc4ccccc4)nc23)cn1 [Example 53, N-benzyl-2-(2-furyl)-3-(1-methylpyrazol-4-yl)pyrazolo[1,5-a]pyrimidin-5-amine] | 6.21 | 6.89 | 7.56 | 6.67 | 
N#Cc1cccc(-c2nn3ccc(NCc4ccccc4)nc3c2C#N)c1 [Example 58, 5-(Benzylamino)-2-(3-cyanophenyl)pyrazolo[1,5-a]pyrimidine-3-carbonitrile] | < 6.00 | 6.93 | 8.70 | 7.08 | 
Cc1ccc(-c2nn3ccc(NCc4ccccc4)nc3c2C#N)o1 [Example 64, 5-(benzylamino)-2-(5-methyl-2-furyl)pyrazolo[1,5-a]pyrimidine-3-carbonitrile] | 7.39 | 6.84 | 8.12 | 7.80 | 6.29
Fc1cccc(-c2cc3nc(NCc4ccccc4)ccn3n2)c1 [Example 66, N-benzyl-2-(3-fluorophenyl)pyrazolo[1,5-a]pyrimidin-5-amine] | < 6.00 | 6.06 | 7.35 | 7.23 | 6.42
N#Cc1c(-c2cccc(F)c2)nn2ccc(NCc3ccccc3)nc12 [Example 70, 5-(Benzylamino)-2-(3-fluorophenyl)pyrazolo[1,5-a]pyrimidine-3-carbonitrile] |  | 6.75 | 8.66 | 8.70 | 6.74
N#Cc1c(-c2cccc(F)c2)nn2ccc(N)nc12 [Example 72, 5-Amino-2-(3-fluorophenyl)pyrazolo[1,5-a]pyrimidine-3-carbonitrile] | 7.04 | 6.25 | 7.51 | 9.52 | 6.94
N#Cc1cccc(-c2nn3ccc(N4CCN(CCF)CC4)nc3c2C#N)c1 [Example 87, 2-(3-Cyanophenyl)-5-[4-(2-fluoroethyl)piperazin-1-yl]pyrazolo[1,5-a]pyrimidine-3-carbonitrile] | < 6.00 | 7.24 | 7.63 | 5.64 | 
Cc1cc(-c2c(-c3cccc(C#N)c3)nn3ccc(C(=O)NCC4(C)NC(=O)NC4=O)nc23)c(F)c(C)n1 (centres unmarked) [Example 101, 2-(3-Cyanophenyl)-3-(3-fluoro-2,6-dimethyl-4-pyridyl)-N-[(4-methyl-2,5-dioxo-imidazolidin-4-yl)methyl]pyrazolo[1,5-a]pyrimidine-5-carboxamide] | < 6.00 |  | 8.30 | 5.82 | 7.89
Cc1cc(-c2c(-c3cccc(C#N)c3)nn3ccc(C(=O)NCC(C)(C)O)nc23)c(F)c(C)n1 [Example 101.1, 2-(3-Cyanophenyl)-3-(3-fluoro-2,6-dimethyl-4-pyridyl)-N-(2-hydroxy-2-methyl-propyl)pyrazolo[1,5-a]pyrimidine-5-carboxamide] | < 6.00 |  | 8.37 | 5.91 | 7.42
Cc1cc(-c2c(-c3cccc(C#N)c3)nn3ccc(N4CCC5(CC4)CNC(=O)C5)nc23)cc(C)n1 [Example 105, 3-[3-(2,6-Dimethyl-4-pyridyl)-5-(3-oxo-2,8-diazaspiro[4.5]decan-8-yl)pyrazolo[1,5-a]pyrimidin-2-yl]benzonitrile] | < 6.00 |  | 6.90 | 6.11 | 6.42
Cc1cc(-c2c(-c3cccc(C#N)c3)nn3ccc(NC4CCN(C)C(=O)C4)nc23)cc(C)n1 (centres unmarked) [Example 105.2, 3-[3-(2,6-Dimethyl-4-pyridyl)-5-[(1-methyl-2-oxo-4-piperidyl)amino]pyrazolo[1,5-a]pyrimidin-2-yl]benzonitrile] | < 6.00 |  | 8.77 | 7.46 | 7.74
